Measurements as given in US20250171434A1, “SEC61 INHIBITORS AND USE THEREOF” (KEZAR LIFE SCIENCES, INC., priority 2022, published 2025).

Experiments:
[1] = system: PD1-ss+10aa/Gaussia Luciferase; test: Dox-Induced PD1-ss-Gluc Assay; type: cell-based; details: Flp-In 293 T-REx cells, 24 hours with doxycycline; Table 1; read-out: 24 hr Dox Inducible PD1ssGluc 293FRT/TO: Mean IC50
From the text: Flp-In 293 T-REx™ cells were transfected with pcDNA™5/FRT/TO plasmid inserted with cDNA encoding Gaussia Luciferase fused to the 3′ end of cDNA encoding PD1 signal sequence plus 10 amino acids (N-[…]-C) (SEQ ID NO: 1). Transfected cells were selected for resistance to the selectable markers Hygromycin and Blasticidin to create a stable cell line that contained the PD1-ss+10aa/Gaussia Luciferase cDNA insert whose expression was regulated under the T-REx™ system. The day before assay, cells were trypsinized and plated in 384-well tissue culture plates. The next day, compound dilutions in DMSO/media containing doxycycline were added to the wells and incubated at 37° C., 5% CO2.
(§1) For chemical structures that include one or more stereoisomers, but are illustrated without indicating stereochemistry, the assay data refers to a mixture of stereoisomers.

[2] = system: IL-2-FL/Gaussia Luciferase; test: Dox Inducible IL2-FL-Gluc Assay; type: cell-based; details: Table 1; for IC50: Flp-In 293 T-REx cells, 24 hours with doxycycline, read-out: 24 hr Dox Inducible IL2FLGluc 293FRT/TO: Mean IC50; for 24 hr Dox Inducible IL2FLGluc 293FRT/TO: IL2/PD1: ratio of IC50s IL2/PD1
From the text: Flp-In 293 T-REx™ cells were transfected with pcDNA™5/FRT/TO plasmid inserted with cDNA encoding Gaussia Luciferase fused to the 3′ end of cDNA encoding full length IL-2 (amino acids 1-153). Transfected cells were selected for resistance to the selectable markers Hygromycin and Blasticidin to create a stable cell line that contained the IL-2-FL/Gaussia Luciferase cDNA insert whose expression was regulated under the T-REx™ system. The day before assay, cells were trypsinized and plated in 384-well tissue culture plates. The next day, compound dilutions in DMSO/media containing doxycycline were added to the wells and incubated at 37° C., 5% CO2.
as §1

CD47(ss + 10)Gluc = test: Dox-Induced CD47-ss-Gluc Assay; type: cell-based; details: Flp-In 293 T-REx cells, 24 hours with doxycycline; Table 1; read-out: 24 hr Dox Inducible CD47(ss + 10)Gluc 293FRT/TO: Mean IC50
[3] = system: IL6R-ss+10aa/Gaussia Luciferase; test: Dox-induced IL-6R-ss-Gluc Assay; type: cell-based; details: Table 1; for IC50: Flp-In 293 T-REx cells, 24 hours with doxycycline, read-out: 24hr Dox Inducible IL6R(ss + 10)Gluc 293FRT/TO: Mean IC50; for 24hr Dox Inducible IL6R(ss + 10)Gluc 293FRT/TO: IL6R/PD1: ratio of IC50s IL6R/PD1
From the text: Flp-In 293 T-REx™ cells were transfected with pcDNATM5/FRT/TO plasmid inserted with cDNA encoding Gaussia Luciferase fused to the 3′ end of cDNA encoding IL6R signal sequence plus 10 amino acids (N-[…]-C). Transfected cells were selected for resistance to the selectable markers Hygromycin and Blasticidin to create a stable cell line that contained the IL6R-ss+10aa/Gaussia Luciferase cDNA insert whose expression was regulated under the T-REx™ system. The day before assay, cells were trypsinized and plated in 384-well tissue culture plates. The next day, compound dilutions in DMSO/media containing doxycycline were added to the wells and incubated at 37° C., 5% CO2.
as §1

[4] = system: multiple myeloma cell line NCI-H929; test: H929 Cell Viability Assay; type: cell-based, human; details: NCI-H929 cells, 48 hours, Celltiter-Glo; for EC50: Homo sapiens, read-out: 48 hr H929 Viability Celltiter-Glo: Mean EC50
Procedure: The human multiple myeloma cell line NCI-H929 was cultured in Advanced RPMI 1640 media (Gibco®) supplemented with 6% fetal bovine serum, 2 mM Glutamine, and 1× Penicillin/Streptomycin. On the day of assay, cells were resuspended in RPMI 1640 media supplemented with 10% fetal bovine serum, 2 mM Glutamine, and 1× Penicillin/Streptomycin and plated in 384-well tissue culture plates and treated with compound dilutions in DMSO/media. Plates were incubated at 37° C., 5% CO2 for 48 hours. After 48 hours, Celltiter-Glo® (Promega) was added to each well and luciferase signal was quantified using Tecan Infinite M1000 Pro for cell viability determination.
as §1

[5] = system: multiple myeloma cell line U266B1; test: U266 Cell Viability Assay; type: cell-based; details: Homo sapiens, U-266; U266B1 cells, 48 hours, Celltiter-Glo; read-out: 48 hr U266 Viability Celltiter-Glo: Mean EC50
Procedure: The human multiple myeloma cell line U266B1 was cultured in RPMI 1640 media supplemented with 10% fetal bovine serum, 2 mM Glutamine, and 1× Penicillin/Streptomycin. Cells were plated in 384-well tissue culture plates and treated with compound dilutions in DMSO/media. Plates were incubated at 37° C., 5% CO2 for 48 hours. After 48 hours, Celltiter-Glo® (Promega) was added to each well and luciferase signal was quantified using Tecan Infinite M1000 Pro for cell viability determination.
as §1

[6] = Liver Microsome Stability Assay, mouse; type: in vitro ADME; details: mouse liver microsomes 1.0 mg/mL, 1.0 uM compound, 37° C., 1 mM NADPH
Procedure: (§2) Stability of a compound was assessed in the presence of liver microsomes from various sources—mouse, rat, monkey and human liver microsomes. 1.0 uM compound, 0.4% DMSO in 0.1 M Potassium Phosphate with 1.0 mg/mL liver microsomes, were incubated at 37° C. with or without 1 mM NADPH. The samples were quenched at 0, and 30 minutes.

[7] = Liver Microsome Stability Assay, rat; type: in vitro ADME; details: rat liver microsomes 1.0 mg/mL, 1.0 uM compound, 37° C., 1 mM NADPH
Procedure: as §2

[8] = Liver Microsome Stability Assay, monkey; type: in vitro ADME; details: monkey liver microsomes 1.0 mg/mL, 1.0 uM compound, 37° C., 1 mM NADPH
Procedure: as §2

[9] = Liver Microsome Stability Assay, human; type: in vitro ADME; details: human liver microsomes 1.0 mg/mL, 1.0 uM compound, 37° C., 1 mM NADPH
Procedure: as §2

CC(C)n1cnc(/C=C/c2csc(NC(=O)c3cc(Cl)cn3Cc3ccnc(F)c3)n2)c1C(F)(F)F [Compound A10, (E)-4-chloro-1-((2-fluoropyridin-4-yl)methyl)-N-(4-(2-(1-isopropyl-5-(trifluoromethyl)-1H-imidazol-4-yl)vinyl)thiazol-2-yl)-1H-pyrrole-2-carboxamide]
IC50 [1]: 11 nM
IC50 [2]: 1070 nM
24 hr Dox Inducible IL2FLGluc 293FRT/TO: IL2/PD1 [2]: 97
IC50 (CD47(ss + 10)Gluc): 933 nM
IC50 [3]: 1060 nM
24hr Dox Inducible IL6R(ss + 10)Gluc 293FRT/TO: IL6R/PD1 [3]: 96
EC50 [4]: 5450 nM
EC50 [5]: > 25000 nM
Liver Microsome Stability (Multiple Species): Mouse - % Remaining after 30 min w/ NADPH (%) [6]: 87%
Liver Microsome Stability (Multiple Species): Rat - % Remaining after 30 min w/ NADPH (%) [7]: 77%
Liver Microsome Stability (Multiple Species): Monkey - % Remaining after 30 min w/ NADPH (%) [8]: 38%
Liver Microsome Stability (Multiple Species): Human - % Remaining after 30 min w/ NADPH (%) [9]: 27%

[2H]C([2H])(c1ccnc(F)c1)n1cc(Cl)cc1C(=O)Nc1nc(/C=C/c2ncn(C3CC3)c2Cl)cs1 [Compound A11, (E)-4-chloro-N-(4-(2-(5-chloro-1-cyclopropyl-1H-imidazol-4-yl)vinyl)thiazol-2-yl)-1-((2-fluoropyridin-4-yl)methyl-d2)-1H-pyrrole-2-carboxamide]
IC50 [1]: 11 nM
IC50 [2]: 1180 nM
24 hr Dox Inducible IL2FLGluc 293FRT/TO: IL2/PD1 [2]: 110
IC50 (CD47(ss + 10)Gluc): 1460 nM
IC50 [3]: 1200 nM
24hr Dox Inducible IL6R(ss + 10)Gluc 293FRT/TO: IL6R/PD1 [3]: 112
EC50 [4]: 11900 nM
EC50 [5]: > 25000 nM
Liver Microsome Stability (Multiple Species): Mouse - % Remaining after 30 min w/ NADPH (%) [6]: 87%
Liver Microsome Stability (Multiple Species): Rat - % Remaining after 30 min w/ NADPH (%) [7]: 17%
Liver Microsome Stability (Multiple Species): Monkey - % Remaining after 30 min w/ NADPH (%) [8]: 6%
Liver Microsome Stability (Multiple Species): Human - % Remaining after 30 min w/ NADPH (%) [9]: 14%

COc1cc(C(=O)Nc2nc(/C=C/c3ncn(C4CC4)c3Cl)cs2)n(Cc2ccnc(F)c2)c1 [Compound A13, (E)-N-(4-(2-(5-chloro-1-cyclopropyl-1H-imidazol-4-yl)vinyl)thiazol-2-yl)-1-((2-fluoropyridin-4-yl)methyl)-4-methoxy-1H-pyrrole-2-carboxamide]
IC50 [1]: 5 nM
IC50 [2]: 2310 nM
24 hr Dox Inducible IL2FLGluc 293FRT/TO: IL2/PD1 [2]: 440
IC50 (CD47(ss + 10)Gluc): 2030 nM
IC50 [3]: 2560 nM
24hr Dox Inducible IL6R(ss + 10)Gluc 293FRT/TO: IL6R/PD1 [3]: 489
EC50 [4]: > 25000 nM
EC50 [5]: > 25000 nM
Liver Microsome Stability (Multiple Species): Mouse - % Remaining after 30 min w/ NADPH (%) [6]: 16%
Liver Microsome Stability (Multiple Species): Rat - % Remaining after 30 min w/ NADPH (%) [7]: 62%
Liver Microsome Stability (Multiple Species): Monkey - % Remaining after 30 min w/ NADPH (%) [8]: 9%
Liver Microsome Stability (Multiple Species): Human - % Remaining after 30 min w/ NADPH (%) [9]: 48%

[2H]C([2H])(c1ccnc(F)c1)n1cc(OC)cc1C(=O)Nc1nc(/C=C/c2ncn(C3CC3)c2Cl)cs1 [Compound A14, (E)-N-(4-(2-(5-chloro-1-cyclopropyl-1H-imidazol-4-yl)vinyl)thiazol-2-yl)-1-((2-fluoropyridin-4-yl)methyl-d2)-4-methoxy-1H-pyrrole-2-carboxamide]
IC50 [1]: 7 nM
IC50 [2]: 3440 nM
24 hr Dox Inducible IL2FLGluc 293FRT/TO: IL2/PD1 [2]: 520
IC50 (CD47(ss + 10)Gluc): 3310 nM
IC50 [3]: 2110 nM
24hr Dox Inducible IL6R(ss + 10)Gluc 293FRT/TO: IL6R/PD1 [3]: 318
EC50 [4]: > 25000 nM
EC50 [5]: > 25000 nM
Liver Microsome Stability (Multiple Species): Mouse - % Remaining after 30 min w/ NADPH (%) [6]: 76%
Liver Microsome Stability (Multiple Species): Rat - % Remaining after 30 min w/ NADPH (%) [7]: 20%
Liver Microsome Stability (Multiple Species): Monkey - % Remaining after 30 min w/ NADPH (%) [8]: 4%
Liver Microsome Stability (Multiple Species): Human - % Remaining after 30 min w/ NADPH (%) [9]: 29%

O=C(Nc1nc(/C=C/c2ncn(C3CC3)c2Cl)cs1)c1cc(OC(F)F)cn1Cc1ccnc(F)c1 [Compound A15, (E)-N-(4-(2-(5-chloro-1-cyclopropyl-1H-imidazol-4-yl)vinyl)thiazol-2-yl)-4-(difluoromethoxy)-1-((2-fluoropyridin-4-yl)methyl)-1H-pyrrole-2-carboxamide]
IC50 [1]: 6 nM
IC50 [2]: 2940 nM
24 hr Dox Inducible IL2FLGluc 293FRT/TO: IL2/PD1 [2]: 490
IC50 (CD47(ss + 10)Gluc): 3230 nM
IC50 [3]: 2070 nM
24hr Dox Inducible IL6R(ss + 10)Gluc 293FRT/TO: IL6R/PD1 [3]: 345
48 hr H929 Viability Celltiter-Glo: Mean EC50 (nM) [4]: I.A
EC50 [5]: > 25000 nM
Liver Microsome Stability (Multiple Species): Mouse - % Remaining after 30 min w/ NADPH (%) [6]: 100%
Liver Microsome Stability (Multiple Species): Rat - % Remaining after 30 min w/ NADPH (%) [7]: 55%
Liver Microsome Stability (Multiple Species): Monkey - % Remaining after 30 min w/ NADPH (%) [8]: 57%
Liver Microsome Stability (Multiple Species): Human - % Remaining after 30 min w/ NADPH (%) [9]: 73%

[2H]C([2H])(c1ccnc(F)c1)n1cc(OC(F)F)cc1C(=O)Nc1nc(/C=C/c2ncn(C3CC3)c2Cl)cs1 [Compound A16, (E)-N-(4-(2-(5-chloro-1-cyclopropyl-1H-imidazol-4-yl)vinyl)thiazol-2-yl)-4-(difluoromethoxy)-1-((2-fluoropyridin-4-yl)methyl-d2)-1H-pyrrole-2-carboxamide]
IC50 [1]: 6 nM
IC50 [2]: 2910 nM
24 hr Dox Inducible IL2FLGluc 293FRT/TO: IL2/PD1 [2]: 460
IC50 (CD47(ss + 10)Gluc): 2800 nM
IC50 [3]: 2150 nM
24hr Dox Inducible IL6R(ss + 10)Gluc 293FRT/TO: IL6R/PD1 [3]: 339
EC50 [4]: > 25000 nM
EC50 [5]: > 25000 nM
Liver Microsome Stability (Multiple Species): Mouse - % Remaining after 30 min w/ NADPH (%) [6]: 81%
Liver Microsome Stability (Multiple Species): Rat - % Remaining after 30 min w/ NADPH (%) [7]: 56%
Liver Microsome Stability (Multiple Species): Monkey - % Remaining after 30 min w/ NADPH (%) [8]: 58%
Liver Microsome Stability (Multiple Species): Human - % Remaining after 30 min w/ NADPH (%) [9]: 83%
